From patent US12077503B2, “Substituted cyclic amides and their use as herbicides” (FMC CORPORATION, priority 2015, dated 2024)

Tests used:
Assay type in all cases: in vivo
[1] = tested on: sedge, umbrella (small-flower umbrella sedge, Cyperus difformis); test: Test B flooded paddy test; settings: Cyperus difformis, Flood, 250 g ai/ha; scale of 0 to 100 where 0 is no effect and 100 is complete control; read-out: Sedge, Umbrella plant response rating
Summary of the method: (§1)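 Evaluation by eye, against controls, occurred 13–15 d post-treatment in a greenhouse, using a 0 (no effect) to 100 (complete control) scale. Application was into the paddy water, 3 cm deep over the soil, on 2-leaf plants.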

[2] = tested on: ducksalad (Heteranthera limosa); test: Test B flooded paddy test; settings: Heteranthera limosa, Flood, 250 g ai/ha; scale of 0 to 100 where 0 is no effect and 100 is complete control; read-out: Ducksalad plant response rating
Summary of the method: as §1

[3] = tested on: barnyardgrass (Echinochloa crus-galli); test: Test B flooded paddy test; settings: Echinochloa crus-galli, Flood, 250 g ai/ha; scale of 0 to 100 where 0 is no effect and 100 is complete control; read-out: Barnyardgrass plant response rating
Summary of the method: as §1

rice (Oryra sativa) = test: Test B flooded paddy test; settings: Oryza sativa, Flood, 250 g ai/ha; scale of 0 to 100 where 0 is no effect and 100 is complete control; read-out: Rice plant response rating
Summary of the method: as §1

[4] = tested on: giant foxtail (Setaria faberii); test: Test A preemergence; settings: Setaria faberi, pre-emergence, 240 h; for pest or weed control at 125 g/ha: 125 g ai/ha, preemergence, 0 to 100 scale where 0 is no effect and 100 is complete control, read-out: Foxtail, Giant plant response rating; for pest or weed control at 500 g/ha: 500 g ai/ha, Preemergence, visual injury vs untreated controls after approximately 10 d, read-out: Foxtail, Giant plant response rating (0 to 100 scale where 0 is no effect and 100 is complete control)
Summary of the method: (§2)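 In a loam soil and sand blend, planted seeds got a preemergence directed soil spray, and young plants at the one- to two-leaf stage, 2–10 cm high, got a postemergence application; ~10 d greenhouse hold; injury rated visually, 0 = none, 100 = complete control.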

[5] = tested on: pigweed (Amaranthus retroflexus); test: Test A preemergence; settings: Amaranthus retroflexus, pre-emergence, 240 h; for pest or weed control at 125 g/ha: 125 g ai/ha, preemergence, 0 to 100 scale where 0 is no effect and 100 is complete control, read-out: Pigweed plant response rating; for pest or weed control at 500 g/ha: 500 g ai/ha, Preemergence, visual injury vs untreated controls after approximately 10 d, read-out: Pigweed plant response rating (0 to 100 scale where 0 is no effect and 100 is complete control)
[6] = tested on: ryegrass, Italian (Italian ryegrass, Lolium multiflorum); test: Test A preemergence; settings: Lolium multiflorum, pre-emergence, 240 h; for pest or weed control at 125 g/ha: 125 g ai/ha, preemergence, 0 to 100 scale where 0 is no effect and 100 is complete control, read-out: Ryegrass, Italian plant response rating; for pest or weed control at 500 g/ha: 500 g ai/ha, Preemergence, visual injury vs untreated controls after approximately 10 d, read-out: Ryegrass, Italian plant response rating (0 to 100 scale where 0 is no effect and 100 is complete control)
Summary of the method: as §2

[7] = tested on: ragweed (common ragweed, Ambrosia elatior); test: Test A preemergence; settings: Ambrosia artemisiifolia, pre-emergence, 240 h; for pest or weed control at 125 g/ha: 125 g ai/ha, preemergence, 0 to 100 scale where 0 is no effect and 100 is complete control, read-out: Ragweed plant response rating; for pest or weed control at 500 g/ha: 500 g ai/ha, Preemergence, visual injury vs untreated controls after approximately 10 d, read-out: Ragweed plant response rating (0 to 100 scale where 0 is no effect and 100 is complete control)
Summary of the method: as §2

[8] = tested on: barnyardgrass (Echinochloa crus-galli); test: Test A preemergence; settings: Echinochloa crus-galli, pre-emergence, 240 h; for pest or weed control at 125 g/ha: 125 g ai/ha, preemergence, 0 to 100 scale where 0 is no effect and 100 is complete control, read-out: Barnyardgrass plant response rating; for pest or weed control at 500 g/ha: 500 g ai/ha, Preemergence, visual injury vs untreated controls after approximately 10 d, read-out: Barnyardgrass plant response rating (0 to 100 scale where 0 is no effect and 100 is complete control)
Summary of the method: as §2

Kochia (Kochia scoparia) = test: Test A preemergence; settings: Bassia scoparia, pre-emergence, 240 h; for pest or weed control at 125 g/ha: 125 g ai/ha, preemergence, 0 to 100 scale where 0 is no effect and 100 is complete control, read-out: Kochia plant response rating; for pest or weed control at 500 g/ha: 500 g ai/ha, Preemergence, visual injury vs untreated controls after approximately 10 d, read-out: Kochia plant response rating (0 to 100 scale where 0 is no effect and 100 is complete control)
Summary of the method: as §2

[9] = tested on: giant foxtail (Setaria faberii); test: Test A postemergence; settings: Setaria faberi, post-emergence, 240 h, 125 g ai/ha, postemergence, visual injury rating after approximately 10 d; read-out: Foxtail, Giant plant response rating (0 to 100 scale, 0 no effect, 100 complete control)
Summary of the method: as §2

[10] = tested on: ryegrass, Italian (Italian ryegrass, Lolium multiflorum); test: Test A postemergence; settings: Lolium multiflorum, post-emergence, 240 h, 125 g ai/ha, postemergence, visual injury rating after approximately 10 d; read-out: Ryegrass, Italian plant response rating (0 to 100 scale, 0 no effect, 100 complete control)
Summary of the method: as §2

[11] = tested on: ragweed (common ragweed, Ambrosia elatior); test: Test A postemergence; settings: Ambrosia artemisiifolia, post-emergence, 240 h, 125 g ai/ha, postemergence, visual injury rating after approximately 10 d; read-out: Ragweed plant response rating (0 to 100 scale, 0 no effect, 100 complete control)
Summary of the method: as §2

[12] = tested on: wheat (Triticum aestivum); test: Test A postemergence; settings: Triticum aestivum, post-emergence, 240 h, 125 g ai/ha, postemergence, visual injury rating after approximately 10 d; read-out: Wheat plant response rating (0 to 100 scale, 0 no effect, 100 complete control)
Summary of the method: as §2

SMILES	pest or weed control at 250 g/ha [1] [%]	pest or weed control at 250 g/ha [2] [%]	pest or weed control at 250 g/ha [3] [%]	pest or weed control at 250 g/ha (rice (Oryra sativa)) [%]	pest or weed control at 125 g/ha [4] [%]	pest or weed control at 500 g/ha [4] [%]	pest or weed control at 125 g/ha [5] [%]	pest or weed control at 500 g/ha [5] [%]	pest or weed control at 125 g/ha [6] [%]	pest or weed control at 500 g/ha [6] [%]	pest or weed control at 125 g/ha [7] [%]	pest or weed control at 500 g/ha [7] [%]	pest or weed control at 125 g/ha [8] [%]	pest or weed control at 500 g/ha [8] [%]	pest or weed control at 125 g/ha (Kochia (Kochia scoparia)) [%]	pest or weed control at 500 g/ha (Kochia (Kochia scoparia)) [%]	pest or weed control at 125 g/ha [9] [%]	pest or weed control at 125 g/ha [10] [%]	pest or weed control at 125 g/ha [11] [%]	plant injury at 125 g/ha [12] [%]
CN1C[C@H](c2cccc(C3CC3)c2)[C@@H](C(=O)Nc2cccc(F)c2F)C1=O [Compound 816]	0	75	55	30	90	90	0	60	70	80	20	50	90	90	60	80	90	60	0	30
CN1C[C@H](c2cccc(F)c2)[C@@H](C(=O)Nc2ccccc2S(C)(=O)=O)C1=O [Compound 824]	0	95	65	0	90	100	0	40	20	40	20	50	90	100	60	70	90	30	30	0
O=C1NC[C@H](c2cccc(C(F)(F)F)c2)[C@H]1C(=O)Nc1cccc2c1OC(F)(F)O2 [Compound 827]	0	75	30	0	90	90	20	40	30	70	0	20	90	90	30	60	80	0	0	20
Cc1c(F)ccc([C@H]2CNC(=O)[C@@H]2C(=O)Nc2ccc(F)c(F)c2F)c1F [Compound 830]	0	100	20	0	90	90	20	40	0	30	0	20	90	90	70	90	70	20	0	0
Cc1c(F)ccc([C@H]2CNC(=O)[C@@H]2C(=O)Nc2ccccc2C(F)(F)F)c1F [Compound 831]	0	70	0	0	90	90	20	20	30	50	0	0	50	70	0	0	20	20	0	0
Cc1c(F)ccc([C@H]2CNC(=O)[C@@H]2C(=O)Nc2ccccc2S(C)(=O)=O)c1F [Compound 832]	0	100	0	15	0	80	0	30	0	30	40	60	40	80	90	100	0	20	20	0
Cc1c(F)ccc([C@H]2CN(C)C(=O)[C@@H]2C(=O)Nc2cccc(F)c2F)c1F [Compound 834]	0	65	60	0	90	100	0	30	70	80	0	20	90	90	80	90	90	60	0	30
